Where two headings read alike, the source gives them in different places.
How the values were obtained:
Test in all cases: Post-emergence test/greenhouse, % damage after three weeks
Assay type in all cases: in vivo
Veronica persicaria = tested on: Veronica persicaria
Description: (§1) The expected action for a given combination of two herbicides can be calculated as follows (cf. COLBY, S. R.: “Calculating synergistic and antagonistic responses of herbicide combinations”, Weeds 15, pages 20-22, 1967):
(§2) If the actual damage exceeds the calculated value, the combination has a superadditive effect, that is to say a synergistic effect.
(§3) Test plants are grown under control conditions (temperature and light).
(§4) Following the spray application, the plant containers are kept in the greenhouse under constant light and temperature conditions.
(§5) After three weeks, the degree of damage to the plants is rated in % damage in comparison to the development of the untreated control.

Lolium perenne = tested on: Lolium perenne
Avena fatua = tested on: Avena fatua
Text: as §1
(§6) If • X=% damage by herbicide A (active compound of the formula I) at an application rate of p kg/ha and • Y=% damage by herbicide B (active compound of the formula II) at an application rate of q kg/ha and • E=the expected damage of herbicides A+B at an application rate of p+q kg/ha, then
as §2
(§7) Test plants are grown under control conditions (temperature and light). Once the plants have reached a height of 5 to 15 cm, the test compound or the combination of test compounds is applied by spraying such that the particular amounts of active compound desired are applied per unit area. The concentration of the spray liquor is chosen so that the particular amounts of active compound desired are applied in 500 litres of water/ha.
as §4, §5
(§8) The figures denote: • 0%=no effect (like untreated control) • 100%=total destruction

Bromus secalinus = tested on: Bromus secalinus
Description: as §1, §2, §3, §4, §5

Alopecurus myosuroides = tested on: Alopecurus myosuroides
Text: as §1, §6, §2, §7, §4, §5, §8

Matricaria inodora = tested on: Matricaria inodora
Text: as §1, §6, §2, §7, §4, §5, §8

Setaria viridis = settings: for Setria viridis observed: post-emergence
Text: as §1, §6, §2, §7, §4, §5, §8

Cyperus esculentus = tested on: Cyperus esculentus
Text: as §1, §6, §2, §7, §4, §5, §8

[1] = Bromus secalinus, post-emergence, 504 h, read-out: Bromus secalinus observed
[2] = Bromus secalinus, post-emergence, 504 h, 4 g of ai/ha, read-out: Bromus secalinus observed
[3] = Bromus secalinus, post-emergence, 504 h, 8 g of ai/ha, read-out: Bromus secalinus observed

Compound: CC(Cl)CC(=O)Nc1c([N+](=O)[O-])cnn1-c1c(Cl)cc(C(F)F)cc1Cl (stereo not shown) [SLA 5599]
- Veronica persicaria observed (Veronica persicaria; 30 g of ai/ha): 80%
- Lolium perenne observed (Lolium perenne; 30 g of ai/ha): 0%
- Lolium perenne observed (Lolium perenne; 60 g of ai/ha): 30%
- Avena fatua observed (Avena fatua; 30 g of ai/ha): 0%
- Avena fatua observed (Avena fatua; 60 g of ai/ha): 0%

Compound: O=C(Nc1ccc(F)cc1F)c1cccnc1Oc1cccc(C(F)(F)F)c1 [diflufenican, N-(2,4-di-fluorophenyl)-2-(3-trifluoromethylphenoxy)pyridine-3-carboxamide, reference compound]
- pest or weed control at 30 g/ha (Bromus secalinus; Bromus secalinus, post-emergence, 504 h, 30 g of ai/ha, read-out: Bromus secalinus observed): 10%
- Alopecurus myosuroides observed (Alopecurus myosuroides; 30 g of ai/ha): 50%
- Alopecurus myosuroides observed (Alopecurus myosuroides; 60 g of ai/ha): 50%
- Alopecurus myosuroides observed (Alopecurus myosuroides; 125 g of ai/ha): 70%
- Avena fatua observed (Avena fatua; 125 g of ai/ha): 50%

Compound: C[C@@H](Oc1ccc(Cl)cc1Cl)C(=O)O [dichlorprop-P, (R)-2-(2,4-dichlorophen-oxy)propanoic acid, reference compound]
- Alopecurus myosuroides observed (Alopecurus myosuroides; 60 g of ai/ha): 0%
- Alopecurus myosuroides observed (Alopecurus myosuroides; 125 g of ai/ha): 0%
- Alopecurus myosuroides observed (Alopecurus myosuroides; 250 g of ai/ha): 20%
- Matricaria inodora observed (Matricaria inodora; 60 g of ai/ha): 0%
- Matricaria inodora observed (Matricaria inodora; 125 g of ai/ha): 0%
- Matricaria inodora observed (Matricaria inodora; 250 g of ai/ha): 0%
- Avena fatua observed (Avena fatua; 125 g of ai/ha): 0%
- Avena fatua observed (Avena fatua; 250 g of ai/ha): 10%

Compound: terbuthylazine
- Bromus secalinus observed (Bromus secalinus; 500 g of ai/ha): 50%

Compound: CNC1=C(c2cccc(C(F)(F)F)c2)C(=O)C(c2ccccc2)O1 (stereo not shown) [flurtamone]
- pest or weed control at 60 g/ha (Bromus secalinus; [1]): 30%
- Matricaria inodora observed (Matricaria inodora; 30 g of ai/ha): 30%

Compound: iodosulfuron
- Bromus secalinus observed (Bromus secalinus; 2 g of ai/ha): 0%
- Bromus secalinus observed (Bromus secalinus; 4 g of ai/ha): 0%
- Veronica persicaria observed (Veronica persicaria; 2 g of ai/ha): 90%
- Setaria viridis observed (Setaria viridis; 2 g of ai/ha): 0%
- Setaria viridis observed (Setaria viridis; 4 g of ai/ha): 0%

Compound: C[S+](C)C.O=C([O-])CNCP(=O)(O)O [sulfosate]
- Lolium perenne observed (Lolium perenne; 250 g of ai/ha): 70%
- Alopecurus myosuroides observed (Alopecurus myosuroides; 250 g of ai/ha): 30%

Compound: CCOC(=O)COc1cc(-c2nn(C)c(OC(F)F)c2Cl)c(F)cc1Cl [pyraflufen ethyl]
- Setria viridis observed (Setaria viridis; application rate 2 g of ai/ha): 40%
- Setria viridis observed (Setaria viridis; application rate 4 g of ai/ha): 40%

Compound: CS(=O)(=O)c1cc(C(F)(F)F)ccc1C(=O)c1cnoc1C1CC1 [isoxaflutole]
- pest or weed control at 2 g/ha (Bromus secalinus; Bromus secalinus, post-emergence, 504 h, 2 g of ai/ha, read-out: Bromus secalinus observed): 0%
- pest or weed control at 4 g/ha (Bromus secalinus; [2]): 0%
- Alopecurus myosuroides observed (Alopecurus myosuroides; 2 g of ai/ha): 0%
- Alopecurus myosuroides observed (Alopecurus myosuroides; 4 g of ai/ha): 0%
- Matricaria inodora observed (Matricaria inodora; 4 g of ai/ha): 70%

Compound: CCS(=O)(=O)Nc1cc(-n2nc(C(F)(F)F)n(C)c2=O)c(F)cc1C(N)=S [HWH 4991]
- Bromus secalinus observed (Bromus secalinus; 30 g of ai/ha): 20%
- Bromus secalinus observed (Bromus secalinus; 60 g of ai/ha): 30%
- Veronica persicaria observed (Veronica persicaria; 30 g of ai/ha): 90%
- Lolium perenne observed (Lolium perenne; 30 g of ai/ha): 20%
- Lolium perenne observed (Lolium perenne; 60 g of ai/ha): 60%

Compound: COC(=O)c1ccc(CNS(C)(=O)=O)cc1S(=O)(=O)NC(=O)Nc1nc(OC)cc(OC)n1 [mesosulfuron]
- Bromus secalinus observed (Bromus secalinus; 8 g of ai/ha): 0%
- Cyperus esculentus observed (Cyperus esculentus; 8 g of ai/ha): 70%
- Cyperus esculentus observed (Cyperus esculentus; 15 g of ai/ha): 70%

Compound: CCOC(=O)COc1cc(-c2nn(C)c(OC(F)F)c2Cl)c(F)cc1Cl [pyraflufen-ethyl]
- pest or weed control at 2 g/ha (Bromus secalinus; [1]): 30%
- pest or weed control at 4 g/ha (Bromus secalinus; [1]): 30%
- Lolium perenne observed (Lolium perenne; 2 g of ai/ha): 0%
- Lolium perenne observed (Lolium perenne; 4 g of ai/ha): 30%

Compound: fluroxypyr
- Bromus secalinus observed (Bromus secalinus; 60 g of ai/ha): 0%
- Bromus secalinus observed (Bromus secalinus; 125 g of ai/ha): 0%
- Veronica persicaria observed (Veronica persicaria; 125 g of ai/ha): 90%
- Matricaria inodora observed (Matricaria inodora; 60 g of ai/ha): 30%
- Matricaria inodora observed (Matricaria inodora; 125 g of ai/ha): 70%

Compound: sulcotrione
- Bromus secalinus observed (Bromus secalinus; 60 g of ai/ha): 0%
- Bromus secalinus observed (Bromus secalinus; 120 g of ai/ha): 30%

Compound: COC(=O)c1ccccc1S(=O)(=O)NC(=O)N(C)c1nc(C)nc(OC)n1 [tribenuron-methyl]
- pest or weed control at 4 g/ha (Bromus secalinus; [2]): 0%
- pest or weed control at 8 g/ha (Bromus secalinus; [3]): 0%
- Veronica persicaria observed (Veronica persicaria; 4 g of ai/ha): 90%
- Cyperus esculentus observed (Cyperus esculentus; 4 g of ai/ha): 0%
- Cyperus esculentus observed (Cyperus esculentus; 8 g of ai/ha): 0%

Compound: COc1cc(OC)nc(NC(=O)NS(=O)(=O)N(C)S(C)(=O)=O)n1 [amidosulfuron, N-(4,6-di-methoxypyrimidin-2-yl)-N′—(N-methyl-N-methylsulphonylsulphamoyl)urea, reference compound]
- pest or weed control at 8 g/ha (Bromus secalinus; [3]): 0%
- Setaria viridis observed (Setaria viridis; 8 g of ai/ha): 0%
- Setaria viridis observed (Setaria viridis; 15 g of ai/ha): 30%
- Avena fatua observed (Avena fatua; 8 g of ai/ha): 0%
- Avena fatua observed (Avena fatua; 15 g of ai/ha): 0%

— patent publication US20120309622A1, “HERBICIDES CONTAINING SUBSTITUTED THIEN-3-YL-SULPHONYLAMINIO(THIO)CARBONYL-TRIAZOLIN(ETHI)ONES” (BAYER INTELLECTUAL PROPERTY GMBH, priority 2001, published 2012)
